| SMILES | melting point |
| --- | --- |
| O=CN(N=Cc1cccs1)c1ccc(Cl)cc1 | 103 to 105 °C |
| OC[C@@H](O)CNCc1ccccc1 | 63 °C |
| CCCCCCCOc1ccc(-c2ccc(OCC(C)CC)nn2)cc1 (stereo not given) | 91 °C |
| C=C(C)C(=O)NC1=CC(O)(C(C)=O)C(C(=O)O)C=C1 (stereo not given) | 178 °C |
| CC(C)C[C@H](NC(=O)Nc1n[nH]c(=S)s1)C(=O)NCc1ccccc1 | 206 to 208 °C |
| FC(F)(F)Sc1ccc(C=Cc2nc(CNc3ccc(CCCCn4ccnn4)cc3)co2)cc1 | 76 to 78 °C |
| CCCC(NOCC)=C1C(=O)CC(c2cc3ccccc3[nH]c2=O)CC1=O (stereo not given) | 155 to 157 °C |
| CC(=O)c1c(N)ncn1C1c2ccccc2CC1(C)C (stereo not given) | 174 to 175 °C |
| COc1ccccc1COC(=O)c1ncn2c1[C@@H]1CCCN1C(=O)c1c(Cl)cccc1-2 | 178 to 179 °C |
| O=C(OCCOc1ccccc1)c1sc(Cl)nc1C(F)(F)F | 70 to 72 °C |
| COP(=O)(NC1C(=O)N2C(C(=O)OCc3ccc([N+](=O)[O-])cc3)=C(C=CN(C)C)CSC12)OC (stereo not given) | 236 to 237 °C |
| CC(=O)Nc1cc(C)cc(C=O)n1 | 202 °C |
| N#CN=C(Nc1ccc(C#N)cc1O)Nc1ccccc1Br | 175 to 176 °C |
| O=C1NCCN1C1CCN(CCC2COc3ccccc3O2)CC1 (stereo not given) | 155 to 157 °C |
| CCOC(=O)N(N)C(=O)c1ccccc1O | 126 °C |
| C#CCc1cc(C(O)=S)cc(N)c1Oc1ccccc1 | 167 to 168 °C |
| COc1cccc2c(=O)c(C(C)=O)c[nH]c12 | 287 to 289 °C |
| N#Cc1c2c(c3c(c1N1CCCCC1)Cc1ccccc1-3)Cc1ccccc1-2 | 186 to 188 °C |
| CCn1nc(C)cc1N | 95 to 96 °C |
| CCOC(=O)c1nc(NC)sc1C(=O)C(C)Br (stereo not given) | 104 to 106 °C |
| N#Cc1nn(-c2c(Cl)cc(C(F)(F)F)cc2Cl)c(N)c1C=O | 194 to 197 °C |
| O=C(NCCCCCCC(=O)c1ncco1)c1cc2ccccc2[nH]1 | 153 to 156 °C |
| Nc1ccc(CCCCOCCCCCCNCC(O)c2cc(O)cc(O)c2)cc1 (stereo not given) | 157 to 159 °C |
| Cc1ccc2c(c1)c(-c1ccc(F)cc1)c(C)n2C1CCN(C)CC1 | 110 to 112 °C |
| NC(=O)[C@@H]1C[C@H](F)CN1C(=O)CCl | 95 to 96 °C |
| CC(=O)NC(Cl)CCC(=O)c1ccccc1 (stereo not given) | 157 to 163 °C |

| SMILES | melting point |
| --- | --- |
| Cc1cn2nc(SCc3ccccc3)nc2nc1C | 147 to 149 °C |
| CCOC(=O)c1cnc2c(C)csc2c1Nc1ccccc1C | 132 to 134 °C |
| COC(=O)CCC(NC(=O)CCCC#Cc1cnc2nc(NC(=O)C(C)(C)C)nc(O)c2c1)C(=O)OC (stereo not given) | 159 to 160 °C |
| COc1ccc2[nH]c(CO)cc2c1C | 133 to 135 °C |
| CCn1cc(C(=O)O)c(=O)c2cc(Cl)c(N3CCN(C)CC3)cc21 | 260 °C |
| CCOC(=O)CCc1ccc(O)c(OCc2ccccc2)c1 | 60 to 61 °C |
| Cc1ccsc1-c1nc(CCl)co1 | 95 to 96 °C |
| O=C(c1ccc(-c2cnc3c(c2)N(Cc2cc(F)ccc2F)CCN3)cn1)N1CCOCC1 | 111 to 113 °C |
| CCc1c(C(=O)C(N)=O)c2c(OCC(=O)NOC(C)(C)C)cccc2n1Cc1ccccc1 | 203 to 205 °C |
| CCOC(=O)C1=C(C)NC(C)=C(C(=O)OCC)C1c1ccccc1C | 128 to 130 °C |
| Cn1cc(C=CC(=O)NCCO)c([N+](=O)[O-])n1 | 176 to 178 °C |
| Clc1ncnc(Cl)c1Cl | 50 to 52 °C |
| NC/C(=C\F)COc1ccc(Cl)cc1Cl | 104 °C |
| N#Cc1cnn2cccc2c1Nc1ccccc1 | 164 °C |
| CCc1nc2c(N)nc3cc(Br)cnc3c2n1CC(C)(C)O | 235 to 236 °C |
| O=C(Nc1ccc(OC(F)(F)F)cc1)NC1CCN(C(=O)C(F)(F)F)CC1 | 150 to 154 °C |
| CN(CCNC(=C[N+](=O)[O-])SCc1ccccc1)Cc1ccc(Cl)nc1 | 119 to 123 °C |
| O=C(CCN1CCN(c2ccc3ccccc3n2)CC1)c1csc2ccccc12 | 92 to 96 °C |
| CNC(=O)Oc1cccc(C2CCCN2Cc2ccncc2)c1 (stereo not given) | 92 to 105 °C |
| O=C(O)CCCCc1cc(O)c(O)c([N+](=O)[O-])c1 | 135 to 138 °C |
| NC(c1ccco1)P(O)O (stereo not given) | 221 °C |
| O=C1NN=C(c2cccc([N+](=O)[O-])c2)C2CC12 (stereo not given) | 220 to 221 °C |
| COC(=O)C(Cc1ccccc1)NC(=S)Nc1nc(C)cs1 (racemic) | 131 to 132 °C |
| CNC1c2ccccc2-c2[nH]c(=O)c3nccn3c21 (stereo not given) | 184 °C |
| N#Cc1ccc(-c2ccc(F)cc2)nc1 | 149 °C |

Results, then the compound that gave them:

| melting point | SMILES |
| --- | --- |
| 235 to 236 °C | CS(=O)(=O)N1CCCn2c(nc3c(N)nc4cc(OCc5ccccc5)ccc4c32)C1 |
| 69 to 71.5 °C | Cc1ccccc1-c1nn(C(C)C(=O)N(C)C)cc1Cl (stereo not given) |
| 89 to 90 °C | BrC(c1ccccc1)c1ccc2ccccc2c1 (stereo not given) |
| 140 to 143 °C | COc1ccc(S(=O)(=O)c2sc(S(N)(=O)=O)cc2C)cc1 |
| 192 to 195 °C | O=[N+]([O-])c1ccc(-n2nnnc2-c2ccccc2-c2ccc(CBr)cc2)cc1 |
| 126 to 127 °C | COCCNC(=O)c1cccc(-c2cccc3cc(C(O)c4cccc(C(F)(F)F)c4)sc23)c1 (stereo not given) |
| 140 to 141 °C | CS(=O)(=O)NC(=O)CCc1ccc(OC2CCc3cc(Cl)ccc32)cc1 (stereo not given) |
| 113 to 115 °C | CCCCc1nc2ccccn2c(=O)c1-c1ccc(Cl)c(OC)c1 |
| 154 °C | CC(C)(C)OC(=O)N[C@H](CNC(=O)Nc1ccccc1)Cc1ccccc1 |
| 162 to 164 °C | COc1ccc(S(=O)(=O)C(C)(CC=Cc2ccccc2)C(=O)NO)cc1 (stereo not given) |
| 160 to 162 °C | CC(C)(O)C1CCN(Cc2ccc(COc3cccc4c3CN(C3CCC(=O)NC3=O)C4=O)cc2)CC1 (stereo not given) |
| 225 to 231 °C | CC1(C)CCC(C)(C)c2cc(NCc3ccc(C(=O)O)cc3)ccc21 |
| 96 to 100 °C | CCCCCc1c(-c2ccc3cc(O)ccc3c2)n(Cc2ccccc2)c2ccccc12 |
| 146 to 147 °C | O=Cc1nc(-c2ccccc2)c(-c2ccccc2)n1Cc1ccccc1 |
| 182 to 184 °C | CC(c1cccc2c1Sc1c(O[Si](c3ccccc3)(c3ccccc3)C(C)(C)C)cccc1N2C)N1C(=O)c2ccccc2C1=O (stereo not given) |
| 131 to 133 °C | CCCCOCCOc1ccc(-c2ccc3c(c2)C=C(C(=O)Nc2ccc(N(C)Cc4nncn4CCC)cc2)CCN3CCC)cc1 |
| 215 to 216 °C | CCOC(=O)c1cn2c(cc(Cl)c3ccc(OC)cc32)n1 |
| 71 °C | COC(=O)c1ccc(C(O)c2cc3cc(Cl)ccc3n2S(=O)(=O)c2ccc(C(C)C)cc2)cc1 (stereo not given) |
| 195 to 196 °C | CS(=O)(=O)c1ccc(Oc2ccc(C#N)cc2)nc1 |
| 134 °C | Cc1ncsc1C(O)c1ccc(Cl)cc1 (stereo not given) |
| 123 to 125 °C | O=C(O)c1ccccc1OCCN1CCC(c2cn(CCOc3ccc4c(c3)OCO4)c3ccccc23)CC1 |
| 129 to 131 °C | COc1ccc(OC)c(C(=O)c2cc3ccc(OC)cc3o2)c1 |
| 166 to 167 °C | O=C(C1CCCC1)N1CCc2cc(S(=O)(=O)N3CCN(c4cccc(Cl)c4)CC3)ccc21 |
| 198 to 199 °C | N#CCCNC(=O)c1cccc(-c2ncc3ccn(Cc4ccc(Cl)cc4Cl)c3n2)c1 |
| 259 to 260 °C | Cn1c2c(c3cc(Cl)ccc31)CCC(C(=O)O)C2 (stereo not given) |

| melting point | SMILES |
| --- | --- |
| 189 to 190 °C | CCCCn1c(O)c(N=Nc2ccc(S(=O)(=O)N(CC(C)O)CC(C)O)cc2)c(C)c(C#N)c1=O (stereo not given) |
| 166 to 168 °C | O=C(NCc1ccc(Cl)cc1)c1cnc2cc(CCCO)ccc2c1O |
| 84 to 85 °C | COc1ccc(C(=O)c2c(Cc3ccccc3)oc3ccccc23)cc1 |
| 209 to 211 °C | Cc1cc(O)ccc1Nc1ccccc1C(=O)O |
| 150 to 152 °C | COc1ccc(Cl)cc1C(=O)NCCc1ccc(Br)c(S(=O)(=O)N=CN(C)C)c1 |
| 101 to 103 °C | Cc1nc2ccc(NCCCN3CCC(OC(c4ccccc4)c4ccccc4)CC3)nn2c1C(=O)O |
| 119 to 121 °C | CCCCc1nn(-c2cc(NC(=O)CC)ccc2Br)c(=O)n1Cc1ccc(-c2ccccc2S(=O)(=O)NC(C)(C)C)cc1F |
| 86 to 92 °C | COCCNC(=O)c1cccc(-c2cccc3cc(Cc4cccc(C#N)c4)sc23)c1 |
| 114 to 116 °C | O=C(Oc1ccc(CS(=O)(=O)Cc2ccc(OC(=O)C3CC3)c([N+](=O)[O-])c2)cc1[N+](=O)[O-])C1CC1 |
| 189 to 190 °C | COc1ccc(C(=O)c2ccc(OC)c([N+](=O)[O-])c2)cc1[N+](=O)[O-] |
| 231 °C | CC(Nc1nc(Oc2cccc3sc(N)nc23)cc(-c2ccc(C(F)(F)F)cc2)n1)c1ccc(F)cc1 (stereo not given) |
| 151 to 153 °C | Cc1ccccc1-c1nc2c3ccccc3ccn2c1N |
| 111 to 112 °C | CN(CC1OCCO1)c1nccc(Oc2ccc(NC(=O)c3cc(F)cc(N4CCOCC4)c3)c3ccccc23)n1 |
| 102 to 104 °C | CCOC(=O)C=Cc1ccc(CCNS(=O)(=O)C=Cc2ccccc2)cc1 |
| 132 to 133 °C | COc1ccc(C(=O)C=Cc2ccc(C#N)cc2)c(OC)c1OC |
| 121 °C | CCCCCc1ccc(C(=O)Nc2ccc3cc(CN4CCCC4)cnc3c2C)cc1 |
| 151 to 153 °C | O=C(O)C1Oc2cc(Cl)c(S(=O)(=O)c3cccc(Cl)c3)cc2O1 (stereo not given) |
| 183 to 184 °C | CC(C)CC(=O)Nc1c(C(=O)c2cc(Cl)ccn2)[nH]c2cc(Cl)ccc12 |
| 98 to 104 °C | COc1ccc(CN2CCN(CCC(c3ccccc3)c3ccccc3)CC2)cc1OC |
| 118 to 124 °C | COc1ccccc1C(C)C(Sc1ccc(C(=O)O)cc1)n1ccnc1 (stereo not given) |
| 170 to 171 °C | COc1ccc2oc(=O)cc(Oc3c(Cl)cccc3Cl)c2c1 |
| 133 to 134 °C | CC(C)NC(=O)OCC(=O)c1ccc(-c2ccccc2)cc1 |
| 143 to 145 °C | COc1cc(C(C)C)ccc1C1(Br)C(=O)c2cccc(NC(C)=O)c2C1=O (stereo not given) |
| 127 to 129 °C | CCN(c1nc(C)cc(C(C)Cn2cnnn2)n1)c1ccc(C(C)C)cc1Br (stereo not given) |
